Test results as given in patent US20240307409A1, “ARGININE METHYLTRANSFERASE INHIBITOR AND USE THEREOF” (Cytosinlab Therapeutics Co., Ltd., priority 2021, published 2024).

Experiments:
PRMT1 = PRMT1 (Homo sapiens, UniProt Q99873); assay: PRMT1 enzyme activity test; assay type: biochemical; conditions: 0.5 nM PRMT1, 3H-SAM, peptide
Experimental: PRMT1 enzyme activity test were performed in a buffer prepared on the same day 5 consisting of 10 mMTirs-HCl (pH=8.0), 0.01% Tween-20 and 1 mM DTT. The compounds were prepared to the highest inhibitor concentration ultimately required in the 100× reaction with 100% DMSO and then transferred to one well of a 384-well Echo plate (Echo-eligible 384-well polypropylene microplates 2.0, transparent, flat-bottomed) and sequentially diluted in the next well with a 3-fold dilution of 100% DMSO, and so on, with a total of 10 concentrations based on Precision. 100% DMSO was added to two empty wells to serve as control well without compound and control well without enzyme in the same 384-well Echo plate. 250 nL of compound was transferred from each well of the 384-well Echo plate to a 384-well assay plate (384-well polypropylene storage microplate) via the Echo 550 liquid processor. For wells with compounds and control well without compound, a mixture (15 uL) containing PRMT1 enzyme was added to the 384-well assay plate. For control wells without enzyme, the mixture containing the assay buffer (15 uL) was added instead. The compounds were allowed to incubate with PRMT1 for 15 minutes at room temperature, and then a mixture containing ^3H-SAM and peptide (10 uL) was added to start the reaction (final volume=25 uL). The final concentrations of the components were as follows: 0.5 nM for PRMT1, 0.25 uM for ^3H-SAM, 0.1 uM for the peptide, and 1% DMSO. After 120 min of incubation, the assay was terminated by the addition of non-radiolabeled SAM (5 uL) to a final concentration of 125 uM, which diluted 3H-SAM to a level at which its incorporation into the peptide substrate was no longer detected. 25 μL of the reaction solution from the 384-well assay plate was then transferred to a 384-well detection plate (Streptavidin FlashPlate HTS PLUS, high volume, 384 wells). The biotinylated peptide was allowed to bind to the surface of the antibiotic protein streptavidin for at least 60 minutes at room temperature. The Flashplate was then washed three times with 0.1% Tween-20 in a BioTek plate washer. Plates were read on a microplate counter (MicroBeta2) to measure the amount of ^3H-labeled peptide bound to the surface of the detection plate, measured in counts per minute (cpm).
The raw data were copied from the Reader and the inhibition values were calculated in Excel by Equation (1), Equation (1): Inh %=(CPMmax−CPMcmpd)/(CPMmax−CPMmin)*100, wherein the Max signal was obtained from the enzyme-substrate interaction and the Min signal was obtained from the substrate. IC50 values were obtained by fitting the data through equation (2) using XLFit add-in for Excel version […]. Equation (2): Y=Bottom+(Top-Bottom)/(1+((IC50/X)[…])), wherein, Y represents inhibition percentage and X represents compound concentration.

Toledo cells = assay: Toledo cell proliferation inhibition assay; assay type: cell-based; conditions: Homo sapiens, Toledo, 144 h; six-day assay, CellTiter-Glo
Experimental: • A. Purpose: to determine the effects of compounds on Toledo cells through a six-day cell proliferation assay. • B. Reagents and materials: • 1. Cell culture medium: RPMI 1640+10% FBS • 2. 384-well cell culture plate (Corning, item #3764) • 3. 0.4% Taipan Blue Staining Solution (Thermo Fisher, item #T10282) • 4. cell counting plate (Thermo Fisher, item #C10228) • 5. 50 ml reagent reservoir (Corning, item #4870) • 6. 50 ml conical sterile polypropylene centrifuge tube (Thermo Fisher, item #339653) • 7. Automatic cell counter (Thermo Fisher, item #AMQAX1000) • 8. CellTiter-Glo Luminescent Cell Viability Detection Reagent (Promega, item #G7572) • 9. SpectraMax i3x Multi-Mode Enzyme Labeling Instrument (Megaman Molecular Instruments, item #5024062) • C. Experimental method • 1. Resuspending the cells with a pipette. • 2. 0.4% Taipan blue staining solution and Toledo cells were mixed in equal proportion, and the cells were counted using an automatic cell counter. • 3. Toledo cells were diluted to a final concentration of 2000 cells per well and transferred to a 50 ml reagent reservoir. • 4. Diluted Toledo cells were added to a 384-well cell culture plate, 40 ul per well. • 5. The cells were shortly centrifuged and settled. • 6. The cells were incubated in a 37° C., 5% CO2 cell culture incubator. • 7. The substrate in the CellTiter-Glo Luminescent Cell Viability Detection Reagent was mixed with the solution. • 8. After six days, the 384-well cell culture plate was taken from the incubator and 20 ul of configured CellTiter-Glo reagent was added to each well. • 9. 384-well cell culture platewasmixed in an orbital shaker for 30 minutes. • 10. Signal of luminescence was detected with a SpectraMax i3x multi-mode enzyme labeling instrument.

Sequence of PRMT1 (Q99873 whole entry): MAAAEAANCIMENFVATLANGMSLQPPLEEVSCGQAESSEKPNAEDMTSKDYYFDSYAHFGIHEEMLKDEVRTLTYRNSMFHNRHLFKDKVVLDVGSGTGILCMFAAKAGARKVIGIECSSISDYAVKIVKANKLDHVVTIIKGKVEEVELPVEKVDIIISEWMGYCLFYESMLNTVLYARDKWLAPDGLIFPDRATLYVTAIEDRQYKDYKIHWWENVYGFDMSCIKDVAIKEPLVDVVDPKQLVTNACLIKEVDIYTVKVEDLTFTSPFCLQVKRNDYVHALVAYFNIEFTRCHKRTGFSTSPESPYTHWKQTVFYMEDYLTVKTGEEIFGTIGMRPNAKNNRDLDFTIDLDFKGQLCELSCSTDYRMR

CNCCN(C)Cc1ccc2c(c1C1CCN(c3cccc(C)c3)CC1)CCC(=O)N2 [P155]
IC50 (PRMT1): < 0.05 µM | IC50 (Toledo cells): < 1 µM

CNCCN(C)Cc1cc(C(=O)NC)ccc1C1CCN(c2cccc(C)c2)CC1 [P159]
IC50 (PRMT1): ≥ 0.5 µM | IC50 (Toledo cells): ≥ 5 µM

CNCCN(C)Cc1ccc(C(=O)NC)cc1C1CCN(c2cccc(C)c2)CC1 [P160]
IC50 (PRMT1): < 0.05 µM | IC50 (Toledo cells): < 1 µM

CNCCN(C)Cc1ncccc1N1CCN(C(C)C)CC1 [P161]
IC50 (PRMT1): < 0.05 µM | IC50 (Toledo cells): < 1 µM

CNCCN(C)Cc1ccc(C)nc1C1CCN(c2cccc(NC)c2)CC1 [P162]
IC50 (PRMT1): 0.05 to 0.5 µM | IC50 (Toledo cells): < 1 µM

CNCCN(C)Cc1ncccc1C1CCN(c2ccc3c(c2)CCO3)CC1 [P163]
IC50 (PRMT1): < 0.05 µM | IC50 (Toledo cells): < 1 µM

CNCCN(C)Cc1ncccc1C1CCN(c2cccc3c2OCC3)CC1 [P164]
IC50 (PRMT1): < 0.05 µM | IC50 (Toledo cells): 1 to 5 µM

CNCCN(C)Cc1ncccc1N1CCC(OCc2ccccc2)CC1 [P166]
IC50 (PRMT1): < 0.05 µM | IC50 (Toledo cells): < 1 µM

CNCCN(C)Cc1ncccc1C1CCN(c2ccc(OC)cc2)CC1 [P168]
IC50 (PRMT1): < 0.05 µM | IC50 (Toledo cells): 1 to 5 µM

CNCCN(C)Cc1ncccc1C1CCN(c2cccc(OC)c2)CC1 [P169]
IC50 (PRMT1): < 0.05 µM | IC50 (Toledo cells): < 1 µM

CNCCN(C)Cc1ccc(F)cc1C1CCN(c2nccc(N3CCCC3)n2)CC1 [P172]
IC50 (PRMT1): < 0.05 µM | IC50 (Toledo cells): < 1 µM

CCOC[C@H]1CC[C@H](c2cccnc2CN(C)CCNC)CC1 [P173]
IC50 (PRMT1): < 0.05 µM | IC50 (Toledo cells): < 1 µM

CCOC[C@H]1CC[C@@H](c2cccnc2CN(C)CCNC)CC1 [P174]
IC50 (PRMT1): < 0.05 µM | IC50 (Toledo cells): 1 to 5 µM

CNCCN(C)Cc1ccc2[nH]c(C)nc2c1C1CCN(c2cccc(C)c2)CC1 [P176]
IC50 (PRMT1): < 0.05 µM | IC50 (Toledo cells): < 1 µM

CNCCN(C)Cc1ncccc1N1CCCCC1 [P177]
IC50 (PRMT1): < 0.05 µM | IC50 (Toledo cells): 1 to 5 µM

CNCCN(C)Cc1ncccc1N1CCC(Oc2ccc(F)cc2)CC1 [P178]
IC50 (PRMT1): < 0.05 µM | IC50 (Toledo cells): < 1 µM

CNCCN(C)Cc1ccc2c(c1C1CCN(c3cccc(C)c3)CC1)CC(=O)N2 [P180]
IC50 (PRMT1): < 0.05 µM | IC50 (Toledo cells): < 1 µM

CCOCC1(CC)CCN(c2cccnc2CN(C)CCNC)CC1 [P182]
IC50 (PRMT1): < 0.05 µM | IC50 (Toledo cells): < 1 µM

CNCCN(C)Cc1cc(F)c2[nH]ncc2c1C1CCN(c2cccc(C)c2)CC1 [P183]
IC50 (PRMT1): < 0.05 µM | IC50 (Toledo cells): < 1 µM

CNCCN(C)Cc1ccc(C)nc1C1CCN(c2ccc(C#N)cc2)CC1 [P188]
IC50 (PRMT1): < 0.05 µM | IC50 (Toledo cells): 1 to 5 µM

CNCCN(C)Cc1ccc2[nH]cnc2c1C1CCN(c2cccc(C)c2)CC1 [P189]
IC50 (PRMT1): < 0.05 µM | IC50 (Toledo cells): < 1 µM

CNCCN(C)Cc1ccc2[nH]ncc2c1C1CCN(c2cccc(C)c2)CC1 [P190, N^1,N^2-dimethyl-N^1-((4-(1-(m-tolyl)piperidin-4-yl)-1H-indazol-5-yl)methyl)ethane-1,2-dia mine]
IC50 (PRMT1): < 0.05 µM | IC50 (Toledo cells): < 1 µM

CNCCN(C)Cc1ncccc1C1CCN(c2ccc(C(=O)N(C)C)cc2)CC1 [P192]
IC50 (PRMT1): < 0.05 µM | IC50 (Toledo cells): ≥ 5 µM

CNCCN(C)Cc1ncccc1C1CCN(c2ccnc(C)c2)CC1 [P193]
IC50 (PRMT1): < 0.05 µM | IC50 (Toledo cells): 1 to 5 µM

CNCCN(C)Cc1ncccc1N1CCC(Nc2ccccc2)CC1 [P194]
IC50 (PRMT1): < 0.05 µM | IC50 (Toledo cells): 1 to 5 µM

CNCCN(C)Cc1ccc(CC(N)=O)cc1C1CCN(c2cccc(C)c2)CC1 [P195]
IC50 (PRMT1): < 0.05 µM | IC50 (Toledo cells): < 1 µM

CCOCC1(COCC)CCC(c2cc(F)cnc2CN(C)CCNC)CC1 [P196]
IC50 (PRMT1): < 0.05 µM | IC50 (Toledo cells): < 1 µM

CNCCN(C)Cc1ncccc1N1CCCC1 [P197]
IC50 (PRMT1): ≥ 0.5 µM | IC50 (Toledo cells): ≥ 5 µM

CNCCN(C)Cc1ncccc1C1CCN(c2ccccc2C#N)CC1 [P201]
IC50 (PRMT1): < 0.05 µM | IC50 (Toledo cells): < 1 µM

CNCCN(C)Cc1ncccc1C1CCN(C(=O)c2ccccc2)CC1 [P203]
IC50 (PRMT1): 0.05 to 0.5 µM | IC50 (Toledo cells): ≥ 5 µM

CCOCC1(COCC)CCC(c2ccncc2CN(C)CCNC)CC1 [P205]
IC50 (PRMT1): 0.05 to 0.5 µM | IC50 (Toledo cells): 1 to 5 µM

CNCCN(C)Cc1ncccc1C1CCN(c2cccnc2)CC1 [P214]
IC50 (PRMT1): < 0.05 µM | IC50 (Toledo cells): 1 to 5 µM
